Experimental data from the NIST ThermoML archive (doi:10.1016/j.jct.2005.12.005).

What was measured:
[1] = refractive index (Na D-line) (dimensionless); conditions: 101.33 kPa, Liquid
[2] = 101 kPa, Liquid; for speed of sound: Sing-around technique in a fixed-path interferometer
[3] = refractive index (Na D-line) (dimensionless); xn = mol fraction of the nth substance listed; conditions: 101 kPa, Liquid
[4] = xn = mol fraction of the nth substance listed; conditions: 101 kPa, Liquid; for speed of sound: Sing-around technique in a fixed-path interferometer

Cc1cc(C)cc(C)c1 [1,3,5-trimethylbenzene]
Conditions | mass density, 298.15 K [kg/m3] | mass density, 303.15 K [kg/m3] | mass density, 308.15 K [kg/m3] | refractive index, 298.15 K | refractive index, 303.15 K | refractive index, 308.15 K | speed of sound, 298.15 K [m/s] | viscosity, 298.15 K [mPa·s] | viscosity, 303.15 K [mPa·s] | viscosity, 308.15 K [mPa·s]
[1] | – | – | – | 1.496 | 1.4936 | 1.4913 | – | – | – | –
[2] | 861.2 | 857.1 | 853 | – | – | – | 1346 | 0.667 | 0.622 | 0.586

Cc1ccc(C)cc1 [1,4-dimethylbenzene]
Conditions | mass density, 298.15 K [kg/m3] | mass density, 303.15 K [kg/m3] | mass density, 308.15 K [kg/m3] | refractive index, 298.15 K | refractive index, 303.15 K | refractive index, 308.15 K | speed of sound, 298.15 K [m/s] | viscosity, 298.15 K [mPa·s] | viscosity, 303.15 K [mPa·s] | viscosity, 308.15 K [mPa·s]
[1] | – | – | – | 1.4926 | 1.4893 | 1.4867 | – | – | – | –
[2] | 856.7 | 852.3 | 848 | – | – | – | 1326 | 0.611 | 0.572 | 0.54

COc1ccccc1 [anisole]
Conditions | mass density, 298.15 K [kg/m3] | mass density, 303.15 K [kg/m3] | mass density, 308.15 K [kg/m3] | refractive index, 298.15 K | refractive index, 303.15 K | refractive index, 308.15 K | speed of sound, 298.15 K [m/s] | viscosity, 298.15 K [mPa·s] | viscosity, 303.15 K [mPa·s] | viscosity, 308.15 K [mPa·s]
[1] | – | – | – | 1.5136 | 1.5112 | 1.5088 | – | – | – | –
[2] | 989.2 | 984.5 | 979.8 | – | – | – | 1410 | 1.008 | 0.929 | 0.861

c1ccccc1 [benzene]
Conditions | mass density, 298.15 K [kg/m3] | mass density, 303.15 K [kg/m3] | mass density, 308.15 K [kg/m3] | refractive index, 298.15 K | refractive index, 303.15 K | refractive index, 308.15 K | speed of sound, 298.15 K [m/s] | viscosity, 298.15 K [mPa·s] | viscosity, 303.15 K [mPa·s] | viscosity, 308.15 K [mPa·s]
[1] | – | – | – | 1.4971 | 1.4936 | 1.4903 | – | – | – | –
[2] | 873.4 | 868.1 | 862.7 | – | – | – | 1302 | 0.602 | 0.56 | 0.523

CC1CCCCC1 [methylcyclohexane]
Conditions | mass density, 298.15 K [kg/m3] | mass density, 303.15 K [kg/m3] | mass density, 308.15 K [kg/m3] | refractive index, 298.15 K | refractive index, 303.15 K | refractive index, 308.15 K | speed of sound, 298.15 K [m/s] | viscosity, 298.15 K [mPa·s] | viscosity, 303.15 K [mPa·s] | viscosity, 308.15 K [mPa·s]
[1] | – | – | – | 1.4217 | 1.4192 | 1.4163 | – | – | – | –
[2] | 765 | 760.7 | 756.3 | – | – | – | 1217 | 0.676 | 0.631 | 0.59

CC1CCCCC1 [methylcyclohexane] + Cc1ccccc1
Conditions | mass density, 298.15 K [kg/m3] | mass density, 303.15 K [kg/m3] | mass density, 308.15 K [kg/m3] | refractive index, 298.15 K | refractive index, 303.15 K | refractive index, 308.15 K | speed of sound, 298.15 K [m/s] | viscosity, 298.15 K [mPa·s] | viscosity, 303.15 K [mPa·s] | viscosity, 308.15 K [mPa·s]
[3], x1 = 0.1027 | – | – | – | 1.4838 | 1.4811 | 1.4783 | – | – | – | –
[3], x1 = 0.205 | – | – | – | 1.475 | 1.4723 | 1.4696 | – | – | – | –
[3], x1 = 0.3034 | – | – | – | 1.4666 | 1.4641 | 1.4615 | – | – | – | –
[3], x1 = 0.4043 | – | – | – | 1.4586 | 1.4561 | 1.4537 | – | – | – | –
[3], x1 = 0.5031 | – | – | – | 1.4511 | 1.4486 | 1.4461 | – | – | – | –
[3], x1 = 0.5988 | – | – | – | 1.4443 | 1.4418 | 1.4392 | – | – | – | –
[3], x1 = 0.7061 | – | – | – | 1.4373 | 1.4347 | 1.4321 | – | – | – | –
[3], x1 = 0.8005 | – | – | – | 1.4315 | 1.4289 | 1.4263 | – | – | – | –
[3], x1 = 0.8984 | – | – | – | 1.4261 | 1.4234 | 1.4208 | – | – | – | –
[3], x1 = 1 | – | – | – | 1.4217 | 1.4192 | 1.4163 | – | – | – | –
[4], x1 = 0.1027 | 849.5 | 844.9 | 840.3 | – | – | – | 1304 | 0.551 | 0.52 | 0.49
[4], x1 = 0.205 | 837.5 | 832.9 | 828.3 | – | – | – | 1295 | 0.547 | 0.518 | 0.489
[4], x1 = 0.3034 | 826.6 | 822 | 817.5 | – | – | – | 1285 | 0.548 | 0.517 | 0.487
[4], x1 = 0.4043 | 816 | 811.5 | 807 | – | – | – | 1275 | 0.556 | 0.523 | 0.491
[4], x1 = 0.5031 | 806.3 | 801.8 | 797.3 | – | – | – | 1266 | 0.564 | 0.532 | 0.5
[4], x1 = 0.5988 | 797.3 | 792.8 | 788.4 | – | – | – | 1256 | 0.577 | 0.544 | 0.51
[4], x1 = 0.7061 | 787.8 | 783.4 | 779 | – | – | – | 1246 | 0.592 | 0.558 | 0.524
[4], x1 = 0.8005 | 780 | 775.6 | 771.2 | – | – | – | 1237 | 0.614 | 0.577 | 0.54
[4], x1 = 0.8984 | 772.4 | 768 | 763.7 | – | – | – | 1227 | 0.643 | 0.603 | 0.563
[4], x1 = 1 | 765 | 760.7 | 756.3 | – | – | – | 1217 | 0.676 | 0.631 | 0.59

CC1CCCCC1 [methylcyclohexane] + c1ccccc1
Conditions | mass density, 298.15 K [kg/m3] | mass density, 303.15 K [kg/m3] | mass density, 308.15 K [kg/m3] | refractive index, 298.15 K | refractive index, 303.15 K | refractive index, 308.15 K | speed of sound, 298.15 K [m/s] | viscosity, 298.15 K [mPa·s] | viscosity, 303.15 K [mPa·s] | viscosity, 308.15 K [mPa·s]
[3], x1 = 0.104 | – | – | – | 1.484 | 1.481 | 1.4779 | – | – | – | –
[3], x1 = 0.2045 | – | – | – | 1.4728 | 1.4702 | 1.4675 | – | – | – | –
[3], x1 = 0.302 | – | – | – | 1.4628 | 1.4604 | 1.458 | – | – | – | –
[3], x1 = 0.4006 | – | – | – | 1.455 | 1.4524 | 1.4499 | – | – | – | –
[3], x1 = 0.5007 | – | – | – | 1.4475 | 1.4448 | 1.4422 | – | – | – | –
[3], x1 = 0.6004 | – | – | – | 1.441 | 1.4384 | 1.4357 | – | – | – | –
[3], x1 = 0.7056 | – | – | – | 1.4341 | 1.4316 | 1.4292 | – | – | – | –
[3], x1 = 0.8033 | – | – | – | 1.429 | 1.4262 | 1.4235 | – | – | – | –
[3], x1 = 0.8982 | – | – | – | 1.4245 | 1.4219 | 1.4192 | – | – | – | –
[3], x1 = 1 | – | – | – | 1.4217 | 1.4192 | 1.4163 | – | – | – | –
[4], x1 = 0.104 | 855.9 | 850.7 | 845.5 | – | – | – | 1293 | 0.584 | 0.546 | 0.509
[4], x1 = 0.2045 | 840.8 | 835.8 | 830.7 | – | – | – | 1284 | 0.566 | 0.53 | 0.494
[4], x1 = 0.302 | 827.6 | 822.7 | 817.8 | – | – | – | 1276 | 0.561 | 0.527 | 0.492
[4], x1 = 0.4006 | 815.8 | 811 | 806.2 | – | – | – | 1267 | 0.556 | 0.523 | 0.49
[4], x1 = 0.5007 | 805 | 800.3 | 795.6 | – | – | – | 1259 | 0.559 | 0.527 | 0.496
[4], x1 = 0.6004 | 795.3 | 790.6 | 786 | – | – | – | 1250 | 0.571 | 0.537 | 0.504
[4], x1 = 0.7056 | 785.9 | 781.4 | 776.8 | – | – | – | 1242 | 0.597 | 0.564 | 0.531
[4], x1 = 0.8033 | 778.5 | 774 | 769.5 | – | – | – | 1234 | 0.617 | 0.583 | 0.549
[4], x1 = 0.8982 | 771.4 | 767 | 762.6 | – | – | – | 1225 | 0.647 | 0.607 | 0.567
[4], x1 = 1 | 765 | 760.7 | 756.3 | – | – | – | 1217 | 0.676 | 0.631 | 0.59

Cc1ccccc1 [toluene]
Conditions | mass density, 298.15 K [kg/m3] | mass density, 303.15 K [kg/m3] | mass density, 308.15 K [kg/m3] | refractive index, 298.15 K | refractive index, 303.15 K | refractive index, 308.15 K | speed of sound, 298.15 K [m/s] | viscosity, 298.15 K [mPa·s] | viscosity, 303.15 K [mPa·s] | viscosity, 308.15 K [mPa·s]
[1] | – | – | – | 1.4931 | 1.4902 | 1.4874 | – | – | – | –
[2] | 862.3 | 857.6 | 852.9 | – | – | – | 1314 | 0.559 | 0.526 | 0.497

Cc1ccccc1 [toluene] + CC1CCCCC1
x2 = 0
Conditions | mass density, 298.15 K [kg/m3] | mass density, 303.15 K [kg/m3] | mass density, 308.15 K [kg/m3] | refractive index, 298.15 K | refractive index, 303.15 K | refractive index, 308.15 K | speed of sound, 298.15 K [m/s] | viscosity, 298.15 K [mPa·s] | viscosity, 303.15 K [mPa·s] | viscosity, 308.15 K [mPa·s]
[3] | – | – | – | 1.4931 | 1.4902 | 1.4874 | – | – | – | –
[4] | 862.3 | 857.6 | 852.9 | – | – | – | 1314 | 0.559 | 0.526 | 0.497
